We go through 14 compounds from US8927500B2, “Peptidomimetic macrocycles” (Aileron Therapeutics, Inc., priority 2012, dated 2015).

Each structure is given as a SMILES string. Where a SMILES comes first, the peptide text is derived from it. Bridges are numbered along the chain shown (N, C = ends). [ ]: non-standard residue; d: D form. dPhe(4-CF3) = N[C@H](Cc1ccc(C(F)(F)F)cc1)C(=O)O; R8 = C=CCCCCCC[C@@](C)(N)C(=O)O; S8 = C=CCCCCCC[C@](C)(N)C(=O)O; Cba = N[C@@H](CC1CCC1)C(=O)O; Chg = N[C@H](C(=O)O)C1CCCCC1; R5 = C=CCCC[C@@](C)(N)C(=O)O; S5 = C=CCCC[C@](C)(N)C(=O)O; Nle = CCCC[C@H](N)C(=O)O; Ac3c = NC1(C(=O)O)CC1

In one assay the target is T1, MDMX (Homo sapiens, UniProt O15151).
T1 sequence (O15151 1-125): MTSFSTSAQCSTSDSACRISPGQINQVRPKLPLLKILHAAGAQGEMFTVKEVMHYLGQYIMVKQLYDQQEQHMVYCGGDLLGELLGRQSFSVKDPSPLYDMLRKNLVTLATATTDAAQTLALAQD
The assay is described as follows: Competitive fluorescence polarization assay for MDMX. As to conditions: competitive FP assay; for IC50: read-out: IC50 (MDMX); for Ki: read-out: Ki (MDMX). In kind it is binding. A general note: Polarisation of emitted light reports the rotation of a fluorescent probe.

For a further assay, the target named is MDM2 (Homo sapiens, UniProt Q00987). The assay is described as follows: Competitive fluorescence polarization assay for MDM2. As to conditions: competitive FP assay, MDM2; for IC50: read-out: IC50 (MDM2); for Ki: read-out: Ki (MDM2). It is filed as binding.
MDM2, sequence (Q00987 1-125): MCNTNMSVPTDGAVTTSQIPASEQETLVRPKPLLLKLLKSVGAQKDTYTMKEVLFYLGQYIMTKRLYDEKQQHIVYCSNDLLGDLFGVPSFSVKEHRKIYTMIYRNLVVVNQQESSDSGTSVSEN

One may read the IC50 as the concentration that gives 50% inhibition. The Ki is the dissociation constant of the complex between target and ligand, obtained from inhibition or displacement.

As to `CCCC[C@H](NC(=O)[C@H](C)NC(=O)[C@H](C)NC(=O)[C@]1(C)CCCC=CCCCCCC[C@@](C)(NC(=O)[C@H](Cc2ccccc2)NC(=O)[C@@H](NC(=O)[C@H](CC(C)C)NC(C)=O)[C@@H](C)O)C(=O)N[C@@H](CCC(=O)O)C(=O)N[C@@H](Cc2ccc(O)cc2)C(=O)N[C@@H](Cc2c[nH]c3ccccc23)C(=O)N[C@@H](C)C(=O)N[C@@H](CCC(N)=O)C(=O)N[C@@H](CC2CCC2)C(=O)N1)C(=O)N[C@@H](C)C(=O)N[C@@H](C)C(N)=O` [compound 380] (Ac-LTF[R8]EYWAQ[Cba][S5]AA[Nle]AA-NH2; staple 4-11), the IC50 on MDMX and on MDM2 was 10 to 100 nM each time. Besides, the inhibition constant Ki on MDMX was 10 to 100 nM; at MDM2, less than 10 nM.
Regarding `C=CCCCCCC[C@@](C)(NC(=O)[C@H](Cc1ccccc1)NC(=O)[C@@H](NC(=O)[C@H](CC(C)C)NC(C)=O)[C@@H](C)O)C(=O)N[C@@H](C)C(=O)N[C@@H](Cc1ccc(O)cc1)C(=O)N[C@@H](Cc1c[nH]c2ccccc12)C(=O)N[C@@H](C)C(=O)N[C@@H](CCC(N)=O)C(=O)N[C@@H](CC(C)C)C(=O)N[C@@](C)(CCCC=C)C(=O)N[C@@H](C)C(=O)N[C@@H](C)C(=O)N[C@@H](CCCC)C(=O)N[C@@H](C)C(N)=O` [compound 411], at MDMX, the IC50 was greater than 1000 nM and the inhibition constant Ki is greater than 1000 nM. Besides, at MDM2, the 50% inhibitory concentration (IC50) is 100 to 1000 nM and the Ki lay in the range of 100 to 1000 nM.
`CC(=O)N[C@@H](CC(C)C)C(=O)N[C@H](C(=O)N[C@@H](Cc1ccccc1)C(=O)N[C@]1(C)CCCCCCC=CCCC[C@@](C)(C(=O)N[C@@H](CO)C(=O)N[C@@H](C)C(=O)N[C@@H](Cc2ccccc2)C(N)=O)NC(=O)[C@H](CC2CCC2)NC(=O)[C@H](CCC(N)=O)NC(=O)[C@H](C)NC(=O)[C@H](Cc2c[nH]c3ccccc23)NC(=O)[C@H](Cc2ccc(O)cc2)NC(=O)[C@H](C)NC1=O)[C@@H](C)O` [compound 258] (Ac-LTF[R8]AYWAQ[Cba][S5]SAF-NH2; staple 4-11): at MDMX, the concentration for half-maximal inhibition (IC50) lay in the range of 100 to 1000 nM and the Ki fell in the range of 10 to 100 nM. In addition, on MDM2, the IC50 lay in the range of 10 to 100 nM and the inhibition constant (Ki) is less than 10 nM.
For `CCCC[C@H](NC(=O)[C@H](C)NC(=O)[C@H](C)NC(=O)[C@]1(C)CCCC=CCCCCCC[C@@](C)(NC(=O)[C@H](Cc2ccccc2)NC(=O)[C@@H](NC(=O)[C@H](CC(C)C)NC(C)=O)[C@@H](C)O)C(=O)N[C@@H](C)C(=O)N[C@@H](Cc2ccc(O)cc2)C(=O)N[C@@H](Cc2c[nH]c3ccccc23)C(=O)N[C@@H](C)C(=O)N[C@@H](CCC(N)=O)C(=O)N[C@@H](CC2CCC2)C(=O)N1)C(=O)N[C@@H](C)C(=O)N[C@@H](C)C(N)=O` [compound 322] (Ac-LTF[R8]AYWAQ[Cba][S5]AA[Nle]AA-NH2; staple 4-11), on MDMX, the 50% inhibitory concentration (IC50) lay in the range of 100 to 1000 nM and the inhibition constant (Ki) fell in the range of 100 to 1000 nM. Besides, on MDM2, the IC50 is 10 to 100 nM and the inhibition constant Ki was in the range of 10 to 100 nM.
As to `CCCC[C@H](NC(=O)[C@H](C)NC(=O)[C@H](C)NC(=O)[C@]1(C)CCCC=CCCCCCC[C@@](C)(NC(=O)[C@H](Cc2ccccc2)NC(=O)[C@@H](NC(=O)[C@H](CC(C)C)NC(C)=O)[C@@H](C)O)C(=O)N[C@@H](CCC(=O)O)C(=O)N[C@@H](Cc2ccc(O)cc2)C(=O)N[C@@H](Cc2c[nH]c3ccccc23)C(=O)N[C@@H](C)C(=O)N[C@@H](CCC(N)=O)C(=O)N[C@@H](CC(C)C)C(=O)N1)C(=O)N[C@@H](C)C(=O)N[C@@H](C)C(N)=O` [compound 377] (Ac-LTF[R8]EYWAQL[S5]AA[Nle]AA-NH2; staple 4-11), at MDMX, the IC50 is 10 to 100 nM and the inhibition constant Ki is 10 to 100 nM. Further, on MDM2, the IC50 fell in the range of 10 to 100 nM and the inhibition constant Ki was less than 10 nM.
As to `CC(=O)N[C@@H](CCC(=O)O)C(=O)N[C@H](C(=O)N[C@@H](Cc1ccccc1)C(=O)N[C@]1(C)CCCCCCC=CCCC[C@@](C)(C(=O)N[C@@H](CO)C(=O)N[C@@H](Cc2c[nH]c3ccccc23)C(=O)N[C@@H](C)C(N)=O)NC(=O)[C@H](CC(C)C)NC(=O)[C@H](CCC(N)=O)NC(=O)[C@H](C)NC(=O)[C@H](Cc2c[nH]c3ccccc23)NC(=O)[C@H](Cc2ccc(O)cc2)NC(=O)[C@H](CCCCN)NC1=O)[C@@H](C)O` [compound 129] (Ac-ETF[R8]KYWAQL[S5]SWA-NH2; staple 4-11), at MDMX, the concentration for half-maximal inhibition (IC50) was 100 to 1000 nM and the Ki is 10 to 100 nM. Further, at MDM2, the IC50 was less than 10 nM and the Ki is less than 10 nM.
With `CC[C@H](C)[C@H](NC(C)=O)C(=O)N[C@H](C(=O)N[C@@H](Cc1ccccc1)C(=O)N[C@]1(C)CCCCCCC=CCCC[C@@](C)(C(=O)N[C@@H](C)C(=O)N[C@@H](C)C(=O)N[C@H](C(=O)N[C@H](C)C(N)=O)[C@@H](C)CC)NC(=O)[C@H](CC(C)C)NC(=O)[C@H](CCC(N)=O)NC(=O)[C@H](C)NC(=O)[C@H](Cc2c[nH]c3ccccc23)NC(=O)[C@H](Cc2c[nH]cn2)NC(=O)[C@H](CCC(=O)O)NC1=O)[C@@H](C)O` (single isomer, unassigned) [compound 173], on MDMX, the IC50 was in the range of 100 to 1000 nM and the inhibition constant (Ki) was 10 to 100 nM. For the same compound, on MDM2, the 50% inhibitory concentration (IC50) is less than 10 nM and the Ki is less than 10 nM.
As for `CC(=O)N[C@@H](C(=O)N[C@]1(C)CCCC=CCCC[C@](C)(C(=O)N[C@H](Cc2ccc(C(F)(F)F)cc2)C(=O)N[C@H](CCC(=O)O)C(=O)N[C@H](CCCCN)C(=O)N[C@H](CC(C)C)C(=O)N[C@H](CC(C)C)C(=O)N[C@H](CCCNC(=N)N)C(N)=O)NC(=O)[C@@H](C)NC(=O)[C@@H](Cc2ccc(O)cc2)NC(=O)[C@@H](Cc2c[nH]c3ccccc23)NC1=O)[C@H](C)O` [compound 752] (Ac-[dT][R5][dW][dY][dA][R5][dPhe(4-CF3)][dE][dK][dL][dL][dR]-NH2; staple 2-6), the IC50 is greater than 1000 nM on MDMX and 100 to 1000 nM at MDM2.
`CC(=O)N[C@@H](CC(C)C)C(=O)N[C@H](C(=O)N[C@@H](Cc1ccccc1)C(=O)N[C@]1(C)CCCCCCC=CCCC[C@@](C)(C(=O)N[C@@H](CO)C(N)=O)NC(=O)[C@H](CC(C)C)NC(=O)[C@H](CCC(N)=O)NC(=O)[C@H](C)NC(=O)[C@H](Cc2c[nH]c3ccccc23)NC(=O)[C@H](C)NC(=O)[C@H](Cc2c[nH]cn2)NC1=O)[C@@H](C)O` (single isomer, unassigned) [compound 710]: the Ki at MDMX and on MDM2 was 10 to 100 nM each time.
Turning to `CC(=O)N[C@@H](Cc1ccccc1)C(=O)N[C@]1(C)CCCCCCC=CCCC[C@@](C)(C(=O)N[C@@H](C)C(=O)N[C@@H](C)C(=O)N[C@H](C(N)=O)C2CCCCC2)NC(=O)[C@H](CC(C)C)NC(=O)C2(CC2)NC(=O)[C@H](CCC(=O)O)NC(=O)[C@H](Cc2c[nH]c3ccccc23)NC(=O)[C@H](Cc2ccc(O)cc2)NC(=O)[C@H](C)NC1=O` [compound 20] (Ac-F[R8]AYWE[Ac3c]L[S5]AA[Chg]-NH2; staple 2-9), the IC50 on MDMX and at MDM2 was 100 to 1000 nM each time. The inhibition constant (Ki) at MDMX and on MDM2 was 10 to 100 nM in each case.
As to `CC(=O)N[C@@H](CC(C)C)C(=O)N[C@H](C(=O)N[C@@H](Cc1ccccc1)C(=O)N[C@]1(C)CCCCCCC=CCCC[C@@](C)(C(=O)N[C@@H](CO)C(=O)N[C@@H](CO)C(=O)N[C@H](C)C(N)=O)NC(=O)[C@H](CC(C)C)NC(=O)[C@H](CCC(N)=O)NC(=O)[C@H](C)NC(=O)[C@H](Cc2c[nH]c3ccccc23)NC(=O)[C@H](Cc2ccc(O)cc2)NC(=O)[C@H](C(C)C)NC1=O)[C@@H](C)O` [compound 133] (Ac-LTF[R8]VYWAQL[S5]SS[dA]-NH2; staple 4-11), at MDMX, the half-maximal inhibitory concentration (IC50) fell in the range of 100 to 1000 nM and the Ki is 10 to 100 nM. Also, on MDM2, the IC50 is less than 10 nM and the Ki was less than 10 nM.
Turning to `CC(=O)N[C@@H](C(=O)N[C@@]1(C)CCCCCCC=CCCC[C@](C)(C(=O)N[C@H](CC(C)C)C(=O)N[C@H](CC(C)C)C(=O)N[C@H](CCCNC(=N)N)C(N)=O)NC(=O)[C@@H](CCC(=O)O)NC(=O)[C@@H](Cc2ccc(C(F)(F)F)cc2)NC(=O)[C@@H](CC(N)=O)NC(=O)[C@@H](C)NC(=O)[C@@H](Cc2ccc(O)cc2)NC(=O)[C@@H](Cc2c[nH]c3ccccc23)NC1=O)[C@H](C)O` [compound 756] (Ac-[dT][S8][dW][dY][dA][dN][dPhe(4-CF3)][dE][R5][dL][dL][dR]-NH2; staple 2-9), the results for the IC50 on MDMX and at MDM2 were greater than 1000 nM and 10 to 100 nM, respectively.
On to `CCCC[C@H](NC(=O)[C@H](Cc1c[nH]c2ccccc12)NC(=O)[C@H](C)NC(=O)[C@]1(C)CCCC=CCCCCCC[C@@](C)(NC(=O)[C@H](Cc2ccccc2)NC(=O)[C@@H](NC(=O)[C@H](CCC(=O)O)NC(C)=O)[C@@H](C)O)C(=O)N[C@@H](C)C(=O)N[C@@H](Cc2ccc(O)cc2)C(=O)N[C@@H](Cc2c[nH]c3ccccc23)C(=O)N[C@@H](C)C(=O)N[C@@H](CCC(N)=O)C(=O)N[C@@H](CC2CCC2)C(=O)N1)C(=O)N[C@@H](C)C(N)=O` [compound 240] (Ac-ETF[R8]AYWAQ[Cba][S5]AW[Nle]A-NH2; staple 4-11), for which, at MDMX, the IC50 lay in the range of 100 to 1000 nM and the Ki lay within 10 to 100 nM. Also, at MDM2, the half-inhibitory concentration (IC50) was 10 to 100 nM and the Ki is less than 10 nM.
As for `CC(=O)N[C@@H](CC(C)C)C(=O)N[C@H](C(=O)N[C@@H](Cc1ccccc1)C(=O)N[C@]1(C)CCCCCCC=CCCC[C@@](C)(C(=O)N[C@@H](C)C(=O)N[C@@H](C)C(=O)N[C@@H](C)C(=O)N[C@@H](C)C(=O)N[C@@H](C)C(=O)N[C@H](C)C(N)=O)NC(=O)[C@H](CC(C)C)NC(=O)[C@H](CC(C)C)NC(=O)[C@H](C)NC(=O)[C@H](Cc2c[nH]c3ccccc23)NC(=O)[C@H](Cc2ccc(O)cc2)NC(=O)[C@H](CCC(=O)O)NC1=O)[C@@H](C)O` [compound 608] (Ac-LTF[R8]EYWALL[S5]AAAAA[dA]-NH2; staple 4-11), the inhibition constant Ki at MDMX is 10 to 100 nM; on MDM2, less than 10 nM.
